The values below come from US11570992B2, “Bicyclic compounds” (BASF SE, priority 2016, dated 2023).

Structures are written as SMILES. Some results are limits rather than exact numbers.

Type in all cases: in vivo
Test [1] concerns boll weevil (Anthonomus grandis). The experiment in a line: Boll weevil test, 96-well microtiter plates with insect diet and eggs. The settings on record: 120 h, egg and larval mortality after 5 days, read-out: mortality in comparison with untreated controls. On the procedure: Boll Weevil (Anthonomus gandis)
For evaluating control of boll weevil (Anthonomus grandis) the test unit consisted of 96-well-microtiter plates containing an insect diet and 5-10 A. grandis eggs.
The compounds were formulated using a solution containing 75% v/v water and 25% v/v DMSO. Different concentrations of formulated compounds were sprayed onto the insect diet at 5 μl, using a custom built micro atomizer, at two replications.
After application, microtiter plates were incubated at about 25±1° C. and about 75±5% relative humidity for 5 days. Egg and larval mortality was then visually assessed.

Test [2] has as its system Diamond Back Moth (Plutella xylostella). The experiment in a line: Diamond back moth test, dipped cabbage leaves. Particulars: 3rd instar larvae, 72 hours after treatment, read-out: mortality in comparison with untreated controls. On the procedure: Diamond Back Moth (Plutella xylostella)
The active compound is dissolved at the desired concentration in a mixture of 1:1 (vol:vol) distilled water:acetone. Surfactant (Kinetic® HV) is added at a rate of 0.01% (vol/vol). The test solution is prepared at the day of use.
Leaves of cabbage were dipped in test solution and air-dried. Treated leaves were placed in petri dishes lined with moist filter paper and inoculated with ten 3rd instar larvae. Mortality was recorded 72 hours after treatment. Feeding damages were also recorded using a scale of 0-100%.

In test [3] the test system is vetch aphid (Megoura viciae). The test is described as follows: Vetch aphid test, broad bean leaf disks in 24-well plates. The settings on record: foliar, 120 h, 5 days, read-out: mortality in comparison with untreated controls. As to the method: Vetch Aphid (Megoura viciae)
For evaluating control of vetch aphid (Megoura viciae) through contact or systemic means the test unit consisted of 24-well-microtiter plates containing broad bean leaf disks.
The compounds were formulated using a solution containing 75% v/v water and 25% v/v DMSO. Different concentrations of formulated compounds were sprayed onto the leaf disks at 2.5 μl, using a custom built micro atomizer, at two replications.
After application, the leaf disks were air-dried and 5-8 adult aphids placed on the leaf disks inside the microtiter plate wells. The aphids were then allowed to suck on the treated leaf disks and incubated at about 23±1° C. and about 50±5% relative humidity for 5 days. Aphid mortality and fecundity was then visually assessed.

In the case of `Cn1c(C(F)(F)F)cc2nc(-c3ccccc3Cl)cn2c1=O` [Example C-1, 2-(2-chlorophenyl)-6-methyl-7-(trifluoromethyl)imidazo[1,2-c]pyrimidin-5-one], in test [1], the mortality at 800 ppm was > 75%.

As to `CCS(=O)(=O)c1cccnc1-c1nc2cc(C(F)(F)F)cc(=O)n2n1C` [Example C-4, 2-(3-ethylsulfonyl-2-pyridyl)-3-methyl-7-(trifluoromethyl)-[1,2,4]triazolo[1,5-a]pyridin-5-one], the mortality at 300 ppm in test [2] is > 75%. Further, in test [3], the mortality at 800 ppm is > 75%.
